The target of one assay is T1, human V2 receptor (Homo sapiens, UniProt P30518).
T1 construct: expressed in transfected cells; host or cells: CHO K1 (ATCC) expressing firefly luciferase under a CRE-responsive promoter
The assay can be described thus: Cellular in vitro assay for determining vasopressin receptor activity, V2 receptor cell line (CRE-luciferase). Particulars: CHO cell line transfected with the human V2 receptor; agonist [Arg8]-vasopressin at EC50 concentration; read-out: IC50 hV2. In kind it is cell-based. The procedure:
(§1) B-1. Cellular In Vitro Assay for Determining Vasopressin Receptor Activity
(§2) The identification of agonists and antagonists of the V1a and V2 vasopressin receptors from humans, rats and dogs as well as the quantification of the activity of the compounds of the invention is carried out using recombinant cell lines. These cell lines originally derive from a hamster's ovary epithelial cell (Chinese Hamster Ovary, CHO K1, ATCC: American Type Culture Collection, Manassas, Va. 20108, USA). The test cell lines constitutively express the human, rat or dog V1a or V2 receptors. In case of the Gαq-coupled V1a receptors, cells are also stably transfected with a modified form of the calcium-sensitive photoproteins aequorin (human and rat V1a) or obelin (dog V1a), which, after reconstitution with the cofactor coelenterazine, emit light when there are increases in free calcium concentrations [Rizzuto R, Simpson A W, Brini M, Pozzan T, Nature 358, 325-327 (1992); Illarionov B A, Bondar V S, Illarionova V A, Vysotski E S, Gene 153 (2), 273-274 (1995)]. The resulting vasopressin receptor cells react to stimulation of the recombinantly expressed V1a receptors by intracellular release of calcium ions, which can be quantified by the resulting photoprotein luminescence. The Gs-coupled V2 receptors are stably transfected into cell lines expressing the gene for firefly luciferase under control of a CRE-responsible promoter. Activation of V2 receptors induces the activation of the CRE-responsive promoter via cAMP increase, thereby inducing the expression of firefly luciferase. The light emitted by photoproteins of V1a cell lines as well as the light emitted by firefly luciferase of V2 cell lines corresponds to the activation or inhibition of the respective vasopressin receptor. The bioluminescence of the cell lines is detected using a suitable luminometer [Milligan G, Marshall F, Rees S, Trends in Pharmacological Sciences 17, 235-237 (1996)].
Vasopressin V2 Receptor Cell Lines:
On the day before the assay, the cells are plated out in culture medium (DMEM/F12, 2% FCS, 2 mM glutamine, 10 mM HEPES) in 384-well microtiter plates and kept in a cell incubator (96% humidity, 5% v/v CO2, 37° C.). On the day of the assay, test compounds in various concentrations and the agonist [Arg^8]-vasopressin at EC50 concentration are added together to the wells, and plates are incubated for 3 hours in a cell incubator. Upon addition of the cell lysis reagent Triton™ and the substrate luciferin, luminescence of firefly luciferase is measured in a luminometer.
(§3) Table 1A below lists individual IC50 values for the compounds of the invention (including racemic mixtures as well as separated enantiomers) that were obtained from cell lines transfected with the human V1a or V2 receptor: […]

The target of a further assay is human V1a receptor (Homo sapiens, UniProt P37288). The assay can be described thus: Cellular in vitro assay for determining vasopressin receptor activity, V1a receptor cell line (photoprotein luminescence). The class given is cell-based. Particulars: for IC50: CHO cell line transfected with the human V1a receptor, agonist [Arg8]-vasopressin at EC50 concentration, read-out: IC50 hV1a; for ratio IC50 hV2/hV1a: selectivity ratio of the cellular IC50 values. The procedure: as §1, §2
Vasopressin V1a Receptor Cell Lines:
On the day before the assay, the cells are plated out in culture medium (DMEM/F12, 2% FCS, 2 mM glutamine, 10 mM HEPES, 5 μg/ml coelenterazine) in 384-well microtiter plates and kept in a cell incubator (96% humidity, 5% v/v CO2, 37° C.). On the day of the assay, test compounds in various concentrations are placed for 10 minutes in the wells of the microtiter plate before the agonist [Arg^8]-vasopressin at EC50 concentration is added. The resulting light signal is measured immediately in a luminometer.
as §3

The results in this text go back to US11331314B2, “Amine substituted triazole derivatives and uses thereof” (Bayer Pharma Aktiengesellschaft, priority 2017, dated 2022).

By IC50 is commonly meant the concentration at which inhibition is half-maximal.

Sequence of human V1a receptor (P37288 whole entry): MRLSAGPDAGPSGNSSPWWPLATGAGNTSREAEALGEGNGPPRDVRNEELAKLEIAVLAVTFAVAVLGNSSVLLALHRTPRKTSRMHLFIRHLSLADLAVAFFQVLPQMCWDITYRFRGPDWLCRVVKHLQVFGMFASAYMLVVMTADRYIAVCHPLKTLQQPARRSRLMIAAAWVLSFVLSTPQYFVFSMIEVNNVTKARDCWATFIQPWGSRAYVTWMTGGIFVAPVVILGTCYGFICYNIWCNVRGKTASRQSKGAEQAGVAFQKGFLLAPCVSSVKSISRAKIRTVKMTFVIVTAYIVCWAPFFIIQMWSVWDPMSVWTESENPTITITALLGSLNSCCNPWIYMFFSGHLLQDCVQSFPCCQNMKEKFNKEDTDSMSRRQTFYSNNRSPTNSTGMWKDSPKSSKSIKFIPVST
T1 sequence (P30518 whole entry): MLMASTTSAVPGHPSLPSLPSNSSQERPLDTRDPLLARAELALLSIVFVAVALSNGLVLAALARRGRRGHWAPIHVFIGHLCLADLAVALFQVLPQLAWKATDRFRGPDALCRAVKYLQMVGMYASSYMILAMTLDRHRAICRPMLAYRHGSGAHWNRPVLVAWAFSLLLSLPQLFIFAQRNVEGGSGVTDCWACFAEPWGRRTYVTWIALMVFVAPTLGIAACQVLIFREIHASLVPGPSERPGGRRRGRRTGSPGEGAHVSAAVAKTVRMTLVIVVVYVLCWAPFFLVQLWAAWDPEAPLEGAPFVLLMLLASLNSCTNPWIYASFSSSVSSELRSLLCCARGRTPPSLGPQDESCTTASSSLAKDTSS

`O=C1CCC(CNc2nc(Cn3nc(-c4ccc(Cl)cc4)n(C[C@H](O)C(F)(F)F)c3=O)nn2-c2ccccc2Cl)N1` (single isomer, unassigned) [Example 65]: at human V2 receptor, the IC50 worked out at 6.45 nM. Moreover, at human V1a receptor, the IC50 was 0.63 nM and the “ratio IC50 hV2/hV1a” value amounted to 10.2.

In the case of `O=c1n(Cc2nc(N3CCNC(C(F)(F)F)C3)n(-c3ccccc3Cl)n2)nc(-c2ccc(Cl)cc2)n1C[C@H](O)C(F)(F)F` (single isomer, unassigned) [Example 67], the IC50 at human V2 receptor came to 22 nM. Also, at human V1a receptor, the IC50 came out at 1.16 nM and the “ratio IC50 hV2/hV1a” value was determined as 19.0.

As to `O=c1n(Cc2nc(N3CCNC(C(F)(F)F)C3)n(-c3ccccc3Cl)n2)nc(-c2ccc(Cl)cc2)n1C[C@H](O)C(F)(F)F` (single isomer, unassigned) [Example 68], at human V2 receptor, the 50% inhibitory concentration (IC50) turned out to be 13.5 nM. Further, at human V1a receptor, the IC50 amounted to 0.45 nM and the “ratio IC50 hV2/hV1a” value is 30.3.

In the case of `O=c1n(Cc2nc(N3CCOC(C(F)(F)F)C3)n(CCC(F)(F)F)n2)nc(-c2ccc(Cl)cc2)n1C[C@H](O)C(F)(F)F` (single isomer, unassigned) [Example 104], the 50% inhibitory concentration (IC50) on human V2 receptor stood at 365 nM. For the same compound, on human V1a receptor, the IC50 was 30.5 nM and the “ratio IC50 hV2/hV1a” value is listed as 12.0.

With `O=c1n(Cc2nc(N3CCOC(C(F)(F)F)C3)n(CCC(F)(F)F)n2)nc(-c2ccc(Cl)cc2)n1C[C@H](O)C(F)(F)F` (single isomer, unassigned) [Example 105], the IC50 at human V2 receptor came to 180 nM. At human V1a receptor, the IC50 came out at 22 nM and the “ratio IC50 hV2/hV1a” value is 8.2.

Consider `O=c1n(Cc2nc(N3CCNC(C(F)(F)F)C3)n(CCC(F)(F)F)n2)nc(-c2ccc(Cl)cc2)n1C[C@H](O)C(F)(F)F` (single isomer, unassigned) [Example 107], for which the IC50 on human V2 receptor came out at 785 nM. Besides, on human V1a receptor, the IC50 was 43.5 nM and the “ratio IC50 hV2/hV1a” value is on record as 18.1.

For the compound `O=c1n(Cc2nc(N3CCNC(C(F)(F)F)C3)n(CCC(F)(F)F)n2)nc(-c2ccc(Cl)cc2)n1C[C@H](O)C(F)(F)F` (single isomer, unassigned) [Example 108], the IC50 on human V2 receptor was determined as 84 nM. Besides, on human V1a receptor, the IC50 worked out at 10.7 nM and the “ratio IC50 hV2/hV1a” value came out at 7.9.

Regarding `CC(C)(C)CNc1nc(Cn2nc(-c3ccc(Cl)cc3)n(C[C@H](O)C(F)(F)F)c2=O)nn1-c1ccccc1Cl` [Example 1, 5-(4-Chlorophenyl)-2-({1-(2-chlorophenyl)-5-[(2,2-dimethylpropyl)amino]-1H-1,2,4-triazol-3-yl}methyl)-4-[(2S)-3,3,3-trifluoro-2-hydroxypropyl]-2,4-dihydro-3H-1,2,4-triazol-3-one], the IC50 on human V2 receptor turned out to be 1.85 nM; on human V1a receptor it was 0.75 nM. Also, the “ratio IC50 hV2/hV1a” value at human V1a receptor is 2.5.

As for `CS(=O)(=O)C1CN(c2nc(Cn3nc(-c4ccc(Cl)cc4)n(C[C@H](O)C(F)(F)F)c3=O)nn2-c2ccccc2Cl)C1` [Example 2, 5-(4-Chlorophenyl)-2-({1-(2-chlorophenyl)-5-[3-(methylsulfonyl)azetidin-1-yl]-1H-1,2,4-triazol-3-yl}methyl)-4-[(2S)-3,3,3-trifluoro-2-hydroxypropyl]-2,4-dihydro-3H-1,2,4-triazol-3-one], the IC50 at human V2 receptor is 0.84 nM. Also, on human V1a receptor, the IC50 was 0.43 nM and the “ratio IC50 hV2/hV1a” value is reported as 1.9.

With `CC(C)(CF)CNc1nc(Cn2nc(-c3ccc(Cl)cc3)n(C[C@H](O)C(F)(F)F)c2=O)nn1-c1ccccc1Cl` [Example 3, 5-(4-Chlorophenyl)-2-({1-(2-chlorophenyl)-5-[(3-fluoro-2,2-dimethylpropyl)amino]-1H-1,2,4-triazol-3-yl}methyl)-4-[(2S)-3,3,3-trifluoro-2-hydroxypropyl]-2,4-dihydro-3H-1,2,4-triazol-3-one], at human V2 receptor, the IC50 amounted to 2.15 nM. For the same compound, at human V1a receptor, the IC50 was 0.62 nM and the “ratio IC50 hV2/hV1a” value stood at 3.5.

Regarding `COC(C)(C)CNc1nc(Cn2nc(-c3ccc(Cl)cc3)n(C[C@H](O)C(F)(F)F)c2=O)nn1-c1ccccc1Cl` [Example 4, 5-(4-Chlorophenyl)-2-({1-(2-chlorophenyl)-5-[(2-methoxy-2-methylpropyl)amino]-1H-1,2,4-triazol-3-yl}methyl)-4-[(2S)-3,3,3-trifluoro-2-hydroxypropyl]-2,4-dihydro-3H-1,2,4-triazol-3-one], the IC50 on human V2 receptor is 4.77 nM; on human V1a receptor it was 2.3 nM. In addition, the “ratio IC50 hV2/hV1a” value on human V1a receptor came out at 2.1.

Turning to `CC(C)(CNc1nc(Cn2nc(-c3ccc(Cl)cc3)n(C[C@H](O)C(F)(F)F)c2=O)nn1-c1ccccc1Cl)C(N)=O` [Example 5, 3-{[1-(2-Chlorophenyl)-3-({3-(4-chlorophenyl)-5-oxo-4-[(2S)-3,3,3-trifluoro-2-hydroxypropyl]-4,5-dihydro-1H-1,2,4-triazol-1-yl}methyl)-1H-1,2,4-triazol-5-yl]amino}-2,2-dimethylpropanamide], at human V2 receptor, the IC50 is 3.8 nM. In addition, at human V1a receptor, the IC50 is 0.64 nM and the “ratio IC50 hV2/hV1a” value was determined as 6.0.

As for `NC(=O)[C@@H]1CC(F)(F)CN1c1nc(Cn2nc(-c3ccc(Cl)cc3)n(C[C@H](O)C(F)(F)F)c2=O)nn1-c1ccccc1Cl` [Example 9, 1-[1-(2-Chlorophenyl)-3-({3-(4-chlorophenyl)-5-oxo-4-[(2S)-3,3,3-trifluoro-2-hydroxypropyl]-4,5-dihydro-1H-1,2,4-triazol-1-yl}methyl)-1H-1,2,4-triazol-5-yl]-4,4-difluoro-L-prolinamide], the IC50 at human V2 receptor was 16.7 nM. At human V1a receptor, the IC50 came to 0.89 nM and the “ratio IC50 hV2/hV1a” value turned out to be 18.8.

Regarding `NC(=O)[C@H]1CC(F)(F)CN1c1nc(Cn2nc(-c3ccc(Cl)cc3)n(C[C@H](O)C(F)(F)F)c2=O)nn1-c1ccccc1Cl` [Example 10, 1-[1-(2-Chlorophenyl)-3-({3-(4-chlorophenyl)-5-oxo-4-[(2S)-3,3,3-trifluoro-2-hydroxypropyl]-4,5-dihydro-1H-1,2,4-triazol-1-yl}methyl)-1H-1,2,4-triazol-5-yl]-4,4-difluoro-D-prolinamide], on human V2 receptor, the IC50 was 18.2 nM. On human V1a receptor, the IC50 was determined as 0.63 nM and the “ratio IC50 hV2/hV1a” value is on record as 29.2.

For `CC(C)(C)OC(=O)N1CCC(O)(CNc2nc(Cn3nc(-c4ccc(Cl)cc4)n(C[C@H](O)C(F)(F)F)c3=O)nn2-c2ccccc2Cl)CC1` [Example 21, tert-Butyl 4-({[1-(2-chlorophenyl)-3-({3-(4-chlorophenyl)-5-oxo-4-[(2S)-3,3,3-trifluoro-2-hydroxypropyl]-4,5-dihydro-1H-1,2,4-triazol-1-yl}methyl)-1H-1,2,4-triazol-5-yl]amino}methyl)-4-hydroxypiperidine-1-carboxylate], the IC50 at human V2 receptor was found to be 35.5 nM. Also, at human V1a receptor, the IC50 is 2 nM and the “ratio IC50 hV2/hV1a” value worked out at 17.8.

Turning to `O=c1n(Cc2nc(NCC3(O)CCNCC3)n(-c3ccccc3Cl)n2)nc(-c2ccc(Cl)cc2)n1C[C@H](O)C(F)(F)F` [Example 22, 5-(4-Chlorophenyl)-2-{[1-(2-chlorophenyl)-5-{[(4-hydroxypiperidin-4-yl)methyl]amino}-1H-1,2,4-triazol-3-yl]methyl}-4-[(2S)-3,3,3-trifluoro-2-hydroxypropyl]-2,4-dihydro-3H-1,2,4-triazol-3-one], the figures for the IC50 at human V2 receptor and at human V1a receptor were 12 nM and 0.46 nM, respectively. Moreover, the “ratio IC50 hV2/hV1a” value at human V1a receptor is on record as 26.1.
